Experimental data: ChEMBL document CHEMBL5528054, “Novel Cocrystal Structures of Peptide Antagonists Bound to the Human Melanocortin Receptor 4 Unveil Unexplored Grounds for Structure-Based Drug Design” (J Med Chem, 2024)
The source made the active and inactive calls. No cut-off for these calls is given here.

Tests used:
HEK293 [1] = assay: Selectivity ratio of IC50 for C-terminal HA-tagged human MC4-R stably expressed in HEK293 cells co-expressing GScAMP22P cAMP reporter assessed as inhibition of alpha-MSH induced cAMP production to IC50 for C-terminal HA-tagged human MC1-R stably expressed in HEK293 cells co-expressing GScAMP22P cAMP reporter assessed as inhibition of alpha-MSH induced cAMP production; type: cell-based
HEK293 [2] = assay: Selectivity ratio of IC50 for C-terminal HA-tagged human MC4-R stably expressed in HEK293 cells co-expressing GScAMP22P cAMP reporter assessed as inhibition of alpha-MSH induced cAMP production to IC50 for C-terminal HA-tagged human MC3-R stably expressed in HEK293 cells co-expressing GScAMP22P cAMP reporter assessed as inhibition of alpha-MSH induced cAMP production; type: cell-based
[3] = target: T1, Melanocyte-stimulating hormone receptor (Homo sapiens, UniProt Q01726); assay: Partial agonist activity at C-terminal HA-tagged human MC1-R stably expressed in HEK293 cells co-expressing GScAMP22P cAMP reporter assessed as inhibition of alpha-MSH induced cAMP production by cell based luminescence assay; type: functional
Target sequence in this assay (Q01726 whole entry): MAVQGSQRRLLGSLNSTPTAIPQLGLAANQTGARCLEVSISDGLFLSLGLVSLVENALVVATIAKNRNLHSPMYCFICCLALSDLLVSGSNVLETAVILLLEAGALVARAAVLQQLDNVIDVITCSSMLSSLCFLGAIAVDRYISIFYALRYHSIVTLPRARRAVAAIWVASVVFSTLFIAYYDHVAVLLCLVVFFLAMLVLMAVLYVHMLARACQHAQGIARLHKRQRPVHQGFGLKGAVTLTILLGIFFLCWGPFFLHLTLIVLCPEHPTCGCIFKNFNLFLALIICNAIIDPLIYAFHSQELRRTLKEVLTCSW

[4] = target: T1, Melanocyte-stimulating hormone receptor; assay: Partial agonist activity at C-terminal HA-tagged human MC1-R stably expressed in HEK293 cells co-expressing GScAMP22P cAMP reporter assessed as inhibition of alpha-MSH induced cAMP production by cell based luminescence assay relative to control; type: functional; design: concentration or dose not given beside the values; details: filed as partial agonist, concentration not given here
Target sequence in this assay (Q01726 whole entry, looked up): as the sequence (Q01726 whole entry) above

Melanocortin receptor 4 = Melanocortin receptor 4 (Homo sapiens, UniProt P32245); assay: Antagonist activity at C-terminal HA-tagged human MC4-R stably expressed in HEK293 cells co-expressing GScAMP22P cAMP reporter assessed as inhibition of alpha-MSH induced cAMP production by cell based luminescence assay; type: functional
Melanocortin receptor 3 = Melanocortin receptor 3 (Homo sapiens, UniProt P41968); assay: Antagonist activity at C-terminal HA-tagged human MC3-R stably expressed in HEK293 cells co-expressing GScAMP22P cAMP reporter assessed as inhibition of alpha-MSH induced cAMP production by cell based luminescence assay; type: functional
HEK293 [5] = assay: Selectivity ratio of IC50 for C-terminal HA-tagged human MC1-R stably expressed in HEK293 cells co-expressing GScAMP22P cAMP reporter assessed as inhibition of alpha-MSH induced cAMP production to IC50 for C-terminal HA-tagged human MC4-R stably expressed in HEK293 cells co-expressing GScAMP22P cAMP reporter assessed as inhibition of alpha-MSH induced cAMP production; type: cell-based
HEK293 [6] = assay: Selectivity ratio of EC50 for agonist activity at N-terminal FLAG tagged MC4-R (unknown origin) transiently transfected in HEK293 cells to EC50 for agonist activity at N-terminal FLAG tagged MC1-R (unknown origin) transiently transfected in HEK293 cells; type: cell-based
[7] = test system: Melanocortin receptor 4 (Homo sapiens), P32245 [D126A]; assay: Agonist activity at N-terminal fused BRIL-Flag tagged human MC4-R D126A mutant transiently transfected in HEK293 cells assessed as fold change in cAMP accumulation by ELISA; type: cell-based; details: filed as agonist
[8] = test system: Melanocortin receptor 4 (Homo sapiens), P32245 [E100A]; assay: Agonist activity at N-terminal fused BRIL-Flag tagged human MC4-R E100A mutant transiently transfected in HEK293 cells assessed as fold change in cAMP accumulation by ELISA; type: cell-based; details: filed as agonist
[9] = test system: Melanocortin receptor 4 (Homo sapiens), P32245 [D122A]; assay: Agonist activity at N-terminal fused BRIL-Flag tagged human MC4-R D122A mutant transiently transfected in HEK293 cells assessed as fold change in cAMP accumulation by ELISA; type: functional, cell-based; details: filed as agonist
T-REx-293 = assay: Inhibition of Kir7.1 […] mutant (unknown origin) expressed in human T-REx-293 cells co-expressing human MC4-R assessed as decrease in K+ conductance at 10 uM incubated for 24 hrs by high-throughput automated patch clamp analysis; type: cell-based
Mus musculus [10] = assay: In vivo activation of Kir7.1 channel in cannulated C57BL/6J mouse assessed as increase in food intake at 500 pM,ICV administration and measured after 4 hrs; type: functional
Mus musculus [11] = assay: In vivo activation of Kir7.1 channel in cannulated C57BL/6J mouse assessed as increase in food intake at 500 pM,ICV administration and measured upto 24 hrs; type: functional
Mus musculus [12] = assay: In vivo activation of Kir7.1 channel in cannulated C57BL/6J mouse assessed as increase in food intake at 500 pM,ICV administration and measured after 6 hrs; type: functional
Mus musculus [13] = assay: In vivo activation of Kir7.1 channel in cannulated C57BL/6J mouse assessed as increase in food intake at 500 pM,ICV administration for 7 days; type: functional; details: time 7.0 day

Sequence of Melanocortin receptor 4 (P32245 whole entry): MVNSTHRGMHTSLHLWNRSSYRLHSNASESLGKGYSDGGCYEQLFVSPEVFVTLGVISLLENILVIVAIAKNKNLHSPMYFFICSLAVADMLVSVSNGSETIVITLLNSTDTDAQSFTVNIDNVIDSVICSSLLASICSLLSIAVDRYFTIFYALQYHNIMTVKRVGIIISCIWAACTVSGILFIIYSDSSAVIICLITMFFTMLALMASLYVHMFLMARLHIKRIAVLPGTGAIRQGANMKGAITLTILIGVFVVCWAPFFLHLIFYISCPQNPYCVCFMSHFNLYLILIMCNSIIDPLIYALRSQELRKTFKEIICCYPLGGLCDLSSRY
Sequence of Melanocortin receptor 3 (P41968 whole entry): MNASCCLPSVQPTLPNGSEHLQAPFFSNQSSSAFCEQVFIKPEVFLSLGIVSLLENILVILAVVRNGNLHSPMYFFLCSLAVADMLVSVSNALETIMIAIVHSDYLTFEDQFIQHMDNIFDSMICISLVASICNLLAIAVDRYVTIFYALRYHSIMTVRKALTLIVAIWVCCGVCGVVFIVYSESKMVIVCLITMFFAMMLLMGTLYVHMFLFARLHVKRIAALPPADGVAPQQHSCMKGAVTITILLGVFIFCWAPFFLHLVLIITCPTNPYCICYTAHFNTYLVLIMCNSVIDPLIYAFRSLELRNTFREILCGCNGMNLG
Sequence of Melanocortin receptor 4 (Homo sapiens), P32245 [D126A] (P32245 whole entry D126A, the tested form may be a part): as the sequence (P32245 whole entry) above, with D126A counted along it
Sequence of Melanocortin receptor 4 (Homo sapiens), P32245 [D122A] (P32245 whole entry D122A, the tested form may be a part): as the sequence (P32245 whole entry) above, with D122A counted along it
Sequence of Melanocortin receptor 4 (Homo sapiens), P32245 [E100A] (P32245 whole entry E100A, the tested form may be a part): as the sequence (P32245 whole entry) above, with E100A counted along it

Structure (SMILES) | Ratio IC50 (HEK293 [1]) | Ratio IC50 (HEK293 [2]) | IC50 [3] [nM] | inhibition [4] [%] | IC50 (Melanocortin receptor 4; read-out: IC50) [nM] | IC50 (Melanocortin receptor 3; read-out: IC50) [nM] | other results
CCCC[C@H](NC(C)=O)C(=O)N[C@H]1CC(=O)NCCCC[C@@H](C(N)=O)NC(=O)CNC(=O)[C@H](Cc2c[nH]c3ccccc23)NC(=O)[C@H](CCCNC(=N)N)NC(=O)[C@@H](Cc2ccc3ccccc3c2)NC(=O)[C@@H]2C[C@H](n3cc(-c4ccccc4)nn3)CN2C1=O | 9.9 | 4.9 | 53.6 | 84.7 | 5.41 | 26.4 | –
CCCC[C@H](NC(C)=O)C(=O)N[C@H]1CC(=O)NCCCC[C@@H](C(N)=O)NC(=O)CNC(=O)[C@H](Cc2c[nH]c3ccccc23)NC(=O)[C@H](CCCNC(=N)N)NC(=O)[C@@H](Cc2ccc3ccccc3c2)NC(=O)[C@@H]2C[C@H](NC(=O)CC3CCCCC3)CN2C1=O | 1.8 | 1.6 | 10.5 | 93.7 | 6.9 | 9.3 | IC50 (Melanocortin receptor 4; read-out: pIC50 (converted)): 5.89 nM
CCCC[C@H](NC(C)=O)C(=O)N[C@H]1CC(=O)NCCCC[C@@H](C(N)=O)NC(=O)CNC(=O)[C@H](Cc2c[nH]c3ccccc23)NC(=O)[C@H](CCCNC(=N)N)NC(=O)[C@@H](Cc2ccc3ccccc3c2)NC(=O)[C@@H]2C[C@H](NC(=O)[C@@H](N)CCCN)CN2C1=O | 0.1 | 3 | 0.25 | 85.1 | 2.97 | 8.96 | Ratio IC50 (HEK293 [5]): 12
CC(=O)N[C@@H](CCCNC(=N)N)C(=O)N[C@H]1CSSC[C@@H](C(N)=O)NC(=O)[C@H](Cc2c[nH]c3ccccc23)NC(=O)[C@H](CCCNC(=N)N)NC(=O)[C@@H](Cc2ccccc2)NC(=O)[C@H](Cc2c[nH]cn2)NC(=O)[C@@H](C)NC1=O | – | – | – | – | – | – | Ratio EC50 (HEK293 [6]): 20; fold change (FC) [7]: 205; fold change (FC) [8]: 2; fold change (FC) [9]: 2
CCCC[C@H](NC(C)=O)C(=O)N[C@H]1CC(=O)NCCCC[C@@H](C(N)=O)NC(=O)CNC(=O)[C@H](Cc2c[nH]c3ccccc23)NC(=O)[C@H](CCCNC(=N)N)NC(=O)[C@@H](Cc2ccc3ccccc3c2)NC(=O)[C@@H]2C[C@H](n3cc(CCN)nn3)CN2C1=O | 0.4 | 9.5 | 1.71 | 85.5 | 4.48 | 42.5 | –
CCCC[C@H](NC(C)=O)C(=O)N[C@H]1CC(=O)NCCCC[C@@H](C(N)=O)NC(=O)CNC(=O)[C@H](Cc2c[nH]c3ccccc23)NC(=O)[C@H](CCCN=C(N)N)NC(=O)[C@@H](Cc2ccc3ccccc3c2)NC(=O)[C@@H]2CCCN2C1=O | – | – | 12 | 89.2 | – | 5.08 | IC50 (Melanocortin receptor 3; read-out: pIC50 (converted)): 5.5 nM; inhibition (T-REx-293): Active
CCCCCCc1cn([C@H]2C[C@H]3C(=O)N[C@H](Cc4ccc5ccccc5c4)C(=O)N[C@@H](CCCNC(=N)N)C(=O)N[C@@H](Cc4c[nH]c5ccccc45)C(=O)NCC(=O)N[C@H](C(N)=O)CCCCNC(=O)C[C@H](NC(=O)[C@H](CCCC)NC(C)=O)C(=O)N3C2)nn1 | 7 | 6 | 68.9 | 83.5 | 9.92 | 59.5 | –
CCCCC(NC(C)=O)C(=O)N[C@H]1CC(=O)NCCCC[C@@H](C(N)=O)NC(=O)CNC(=O)[C@H](Cc2c[nH]c3ccccc23)NC(=O)[C@H](CCCNC(=N)N)NC(=O)[C@@H](Cc2ccc3ccccc3c2)NC(=O)[C@@H]2C[C@@H](n3cc(-c4ccccn4)nn3)CN2C1=O (some centres undefined) | 53 | 1.6 | – | 88.4 | – | – | –
CCCC[C@H](NC(C)=O)C(=O)N[C@H]1CC(=O)NCCCC[C@@H](C(N)=O)NC(=O)CNC(=O)[C@H](Cc2c[nH]c3ccccc23)NC(=O)[C@H](CCCNC(=N)N)NC(=O)[C@@H](Cc2ccc3ccccc3c2)NC(=O)[C@@H]2C[C@H](n3cc(C(C)(C)N)nn3)CN2C1=O | 0.5 | 6.8 | 2.53 | 83.8 | 5.01 | 34.3 | Activity (Mus musculus [10]): inactive; Activity (Mus musculus [11]): inactive
CCCC[C@H](NC(C)=O)C(=O)N[C@H]1CC(=O)NCCCC[C@@H](C(N)=O)NC(=O)CNC(=O)[C@H](Cc2c[nH]c3ccccc23)NC(=O)[C@H](CCCNC(=N)N)NC(=O)[C@@H](Cc2ccc3ccccc3c2)NC(=O)[C@@H]2C[C@H](NC(=O)[C@@H](N)CCC(=O)O)CN2C1=O | 0.1 | 2 | 0.2 | 80.7 | 2.83 | 5.64 | Ratio IC50 (HEK293 [5]): 14
CCCC[C@H](NC(C)=O)C(=O)N[C@H]1CC(=O)NCCCC[C@@H](C(N)=O)NC(=O)[C@H](CCCNC(=N)N)NC(=O)[C@H](Cc2c[nH]c3ccccc23)NC(=O)[C@H](CCCNC(=N)N)NC(=O)[C@@H](Cc2ccc3ccccc3c2)NC(=O)[C@@H]2CCCN2C1=O | – | – | 299 | 86.8 | – | – | inhibition (T-REx-293): Active
CCCC[C@H](NC(C)=O)C(=O)N[C@H]1CC(=O)NCCCC[C@@H](C(N)=O)NC(=O)CNC(=O)[C@H](Cc2c[nH]c3ccccc23)NC(=O)[C@H](CCCNC(=N)N)NC(=O)[C@@H](Cc2ccc3ccccc3c2)NC(=O)[C@@H]2C[C@H](n3cc(-c4ccccn4)nn3)CN2C1=O | 30.1 | 4.5 | 204 | 87.2 | 6.78 | 31.5 | –
CCCCC(NC(C)=O)C(=O)N[C@H]1CC(=O)NCCCC[C@@H](C(N)=O)NC(=O)CNC(=O)[C@H](Cc2c[nH]c3ccccc23)NC(=O)[C@H](CCCNC(=N)N)NC(=O)[C@@H](Cc2ccc3ccccc3c2)NC(=O)[C@@H]2C[C@@H](n3cc(C(C)(C)N)nn3)CN2C1=O (some centres undefined) | 0.4 | 16.7 | – | 86.7 | – | – | Activity (Mus musculus [12]): Active; Activity (Mus musculus [13]): Active
CCCC[C@H](NC(C)=O)C(=O)N[C@H]1CC(=O)NCCCC[C@@H](C(N)=O)NC(=O)CNC(=O)[C@H](Cc2c[nH]c3ccccc23)NC(=O)[C@H](CCCNC(=N)N)NC(=O)[C@@H](Cc2ccc3ccccc3c2)NC(=O)[C@@H]2C[C@H](n3cc(CCC(=O)O)nn3)CN2C1=O | 20.8 | 6.9 | 389 | 86.4 | 18.8 | 130 | –
